Counter-ions that a name gives are not always drawn. Values belong to the compound of their own block, whether it stands above or below them.
Experiments:
[1] = EP 2415 774; cited from earlier work
platelet aggregation = conditions: administered in the same dose, EP 1 298 132 B1; cited from earlier work
[2] = Solubility of prasugrel base and prasugrel HCl at different pH values; assay type: physicochemical
Text: According to the examples of WO 2008/073759 prasugrel containing pharmaceutical compositions are stabilized by storing the tablets in air-and waterproof packaging. According to WO 2006/135605 the decomposition of prasugrel containing compositions can be reduced in air- and moisture-proof blister filled with inert gas. […] This fact is substantiated by the following Table. It can be seen from the above Table that the solubility of the hydrochloric acid salt of prasugrel is much higher than that of the prasugrel base even in the pH range between 4.5 and 6.8

[3] = Storage stability of prasugrel base, related substances by HPLC; assay type: physicochemical
Text: Contrary to the teaching of WO 2011/098536a stable product of appropriate bioavailability is obtained.

[4] = 25 ± 2° C. 60 ± 5% RH, 2 months
[5] = 25 ± 2° C. 60 ± 5% RH, 3 months
[6] = 25 ± 2° C. 60 ± 5% RH, 6 months
[7] = 40 ± 2° C. 75 ± 5% RH, 2 months
[8] = 40 ± 2° C. 75 ± 5% RH, 3 months
[9] = 40 ± 2° C. 75 ± 5% RH, 6 months

SMILES: CC(=O)Oc1cc2c(s1)CCN(C(C(=O)C1CC1)c1ccccc1F)C2 (centres unmarked) [hydrogen bromide salt]
- Solubility in 0.1N hydrochloric acid compared with the hydrochloric acid salt [1]: more readily soluble

- Solubility ([2]; pH 1): 7.8 g/100 ml
- Solubility ([2]; pH 4.5): 0.032 g/100 ml
- Solubility ([2]; pH 6.8): 0.007 g/100 ml
SMILES: CC(=O)Oc1cc2c(s1)CCN(C(C(=O)C1CC1)c1ccccc1F)C2 (centres unmarked) [prasugrel HCl]
- Platelet aggregation inhibitory effect compared with the base (platelet aggregation): almost twice higher

- Solubility ([2]; Water): 0.0009 g/100 ml
- Solubility ([2]; pH 1): 2.8 g/100 ml
- Solubility ([2]; pH 4.5): 0.0035 g/100 ml
- Solubility ([2]; pH 6.8): 0.001 g/100 ml
- Related substances by HPLC: Any identified impurity, each ([3]; 25 ± 2° C. 60 ± 5% RH, 1 month): 0.05%
- Related substances by HPLC: Any unidentified impurity ([3]; 25 ± 2° C. 60 ± 5% RH, 1 month): <0.05%
- Related substances by HPLC: Dezacetyl impurity ([3]; 25 ± 2° C. 60 ± 5% RH, 1 month): <0.05%
- Related substances by HPLC: Sum of impurities ([3]; 25 ± 2° C. 60 ± 5% RH, 1 month): 0.05%
- Related substances by HPLC: Any identified impurity, each [3, 4]: 0.07%
- Related substances by HPLC: Any unidentified impurity [3, 4]: <0.05%
- Related substances by HPLC: Dezacetyl impurity [3, 4]: <0.05%
- Related substances by HPLC: Sum of impurities [3, 4]: 0.07%
- Related substances by HPLC: Any identified impurity, each [3, 5]: <0.05%
- Related substances by HPLC: Any unidentified impurity [3, 5]: <0.05%
- Related substances by HPLC: Dezacetyl impurity [3, 5]: <0.05%
- Related substances by HPLC: Sum of impurities [3, 5]: <0.05%
- Related substances by HPLC: Any identified impurity, each [3, 6]: <0.05%
- Related substances by HPLC: Any unidentified impurity [3, 6]: <0.05%
- Related substances by HPLC: Dezacetyl impurity [3, 6]: <0.05%
- Related substances by HPLC: Sum of impurities [3, 6]: <0.05%
- Related substances by HPLC: Any identified impurity, each ([3]; 25 ± 2° C. 60 ± 5% RH, Initial): <0.05%
- Related substances by HPLC: Any unidentified impurity ([3]; 25 ± 2° C. 60 ± 5% RH, Initial): <0.05%
- Related substances by HPLC: Dezacetyl impurity ([3]; 25 ± 2° C. 60 ± 5% RH, Initial): <0.05%
- Related substances by HPLC: Sum of impurities ([3]; 25 ± 2° C. 60 ± 5% RH, Initial): <0.05%
- Related substances by HPLC: Any identified impurity, each ([3]; 40 ± 2° C. 75 ± 5% RH, 1 month): <0.05%
- Related substances by HPLC: Any unidentified impurity ([3]; 40 ± 2° C. 75 ± 5% RH, 1 month): <0.05%
- Related substances by HPLC: Dezacetyl impurity ([3]; 40 ± 2° C. 75 ± 5% RH, 1 month): <0.05%
- Related substances by HPLC: Sum of impurities ([3]; 40 ± 2° C. 75 ± 5% RH, 1 month): <0.05%
- Related substances by HPLC: Any identified impurity, each [3, 7]: 0.05%
- Related substances by HPLC: Any unidentified impurity [3, 7]: <0.05%
- Related substances by HPLC: Dezacetyl impurity [3, 7]: <0.05%
- Related substances by HPLC: Sum of impurities [3, 7]: 0.05%
- Related substances by HPLC: Any identified impurity, each [3, 8]: <0.05%
- Related substances by HPLC: Any unidentified impurity [3, 8]: <0.05%
- Related substances by HPLC: Dezacetyl impurity [3, 8]: <0.05%
- Related substances by HPLC: Sum of impurities [3, 8]: <0.05%
- Related substances by HPLC: Any identified impurity, each [3, 9]: <0.05%
- Related substances by HPLC: Any unidentified impurity [3, 9]: <0.05%
- Related substances by HPLC: Dezacetyl impurity [3, 9]: <0.05%
- Related substances by HPLC: Sum of impurities [3, 9]: <0.05%
- Related substances by HPLC: Any identified impurity, each ([3]; 40 ± 2° C. 75 ± 5% RH, Initial): <0.05%
- Related substances by HPLC: Any unidentified impurity ([3]; 40 ± 2° C. 75 ± 5% RH, Initial): <0.05%
- Related substances by HPLC: Dezacetyl impurity ([3]; 40 ± 2° C. 75 ± 5% RH, Initial): <0.05%
- Related substances by HPLC: Sum of impurities ([3]; 40 ± 2° C. 75 ± 5% RH, Initial): <0.05%
- Stability of the base per se on storage ([3]; storage period of 6 months): remains stable
SMILES: CC(=O)Oc1cc2c(s1)CCN(C(C(=O)C1CC1)c1ccccc1F)C2 (centres unmarked) [prasugrel base, 5-/2-cyclopropyl-1-(2-fluoro-phenyl)-2-oxoethyl/-4,5,6,7-tetrahydrothieno/3.2-c/-pyridine-2-yl-acetate]
